Results: patent publication US20240199698A1, “PEPTIDE AMPHIPHILE COMPOSITIONS AND METHODS OF USE THEREOF” (UAB RESEARCH FOUNDATION, priority 2022, published 2024)

How the values were obtained:
U937 cells = assay: Effects of colchicine on foam cell formation (Bodipy); format: cell-based; conditions: tested 0, 2, 5, 10, 20, 40 nM; Ox-LDL 100 ug/mL, 3 days
Experimental: Experimental approach: U937 cells with a cell density of 5000 cell/well were seeded in a 48 well plate, then the colchicine with a selected concentration range from 0 to 40 nM, that is 0, 2 nM, 5 nM, 10 nM, 20 nM, and 40 nM, were added into each well-containing monocytes and RAMPI monocyte culture medium. Then each well were added with M-CSF (100 ng/mL), GM-CSF (25 ng/mL) and INF-γ (100 ng/mL) for macrophage formation. After 7 days of culture, then Ox-LDL (100 ug/mL) was added to each well and cultured for 3 days. After 3 days of culture, the effect of […] on foam cell formation was assessed by using Bodipy. It was shown that the suppression of foam cells was observed when the colchicine concentration is above 2 nM, that is, at the concentrations of 5 nM, 10 nM, 20 nM, and 40 nM (FIG. 18B)

[1] = test system: diseased hAECs (TNF-α stimulated); assay: Effects of colchicine on diseased EC function (NO production, DAF-FM); format: cell-based, human; conditions: tested 10, 20, 40, 80, 160 nM; three days; versus diseased hAECs without colchicine
Experimental: Experiment approach: hAECs were seeded in 48-well plate at a cell density of 5000 per well and allowed to attach and grow for 24 h to create a stable confluent monolayer of hAECs (hereafter the “endothelium”). Then, the diseased hAECs (“diseased endothelium”) were obtained by stimulating the hAECs with TNF-α (20 ng/mL) for 18 hours. After that, the colchicine at concentrations of 10 nM, 20 nM, 40 nM, 80 nM, and 160 nM was added to the hAECs after TNF-α stimulation, and then the hAECs were cultured for another three days. Then, the diseased hAEC function was assessed by measuring NO production by hAECs using DAF-FM (4-amino-5-methylamino-2′,7′-difluororescein). DAF-FM is essentially nonfluorescent until they react with NO to form a fluorescent benzotriazole. DAF-FM is cell-permeant and passively diffuses across cellular membranes. Once inside cells, it is de-acetylated by intracellular esterases. The fluorescence quantum yield of DAF-FM is —0.005, but increases about 160-fold, to ˜0.81, after reacting with nitric oxide. With excitation/emission maxima of 495/515 nm, DAF-FM can be detected by any instrument that can detect fluorescein, including fluorescent microplate readers. […] After the de-esterification, the fluorescence intensity of DAF-FM in hAECs was measured at (excitation/emission) 495/515 nm.

[2] = test system: patients with myocardial infarction or chronic coronary disease; conditions: cited from earlier work
HAECs = assay: hAEC proliferation, CyQUANT Cell Proliferation Assay; format: cell-based, human; conditions: sirolimus 0-50 nM, with or without 10 -9 M NO, three days
Experimental: Preparation of NO. The peptide amphiphiles (PA-C16-CA and PA-C16-K5) were synthesized, respectively. These two distinct PAs were mixed in a 9:1 ratio (YIGSR:KKKKK) to form PA-C16-YK5, which was subsequently reacted with NO gas to form PA-YK-NO. The released NO was collected, and NO concentration was measured using Greiss Assay.
Treatment on hAEC. hAECs were seeded in a 48-well plate at a cell density of 2000 per well and allowed to attach for 24 h (hereafter the “endothelium”). For the sirolimus-only group, the sirolimus at concentrations of 0, 0.25, 0.1, 0.5, 1, and 50 nM were added to the hAECs, and then the hAECs were cultured for another three days. Similarly, for the dual-treatment group, sirolimus at similar concentrations was combined with 10 -9 M NO and added to hAEC. Then, the proliferation of hAEC under different conditions was assessed by CyQUANT Cell Proliferation Assay after three days. Briefly, the culture medium in each well was removed, and the cells in the tissue culture plate were frozen overnight at −80° C.; then, the dye in the lysis buffer was added after completely thawing at room temperature. After 30 min incubation, the fluorescent signal was measured using a microplate reader at 485/528 nm.

[3] = cited from earlier work

| Compound | colchicine concentration at which suppression of foam cells was observed (U937 cells) | colchicine concentration at which NO production of diseased hAECs increased [1] | composite endpoint of cardiovascular death, resuscitated cardiac arrest, myocardial infarction, stroke, or urgent hospitalization for angina (COLCOT) ([2]; 0.5 mg once daily versus placebo, myocardial infarction within 30 days) | risk of acute cardiovascular events (LoDoCo) ([2]; 0.5 mg once daily, chronic coronary disease, open-label) | primary composite endpoint of cardiovascular mortality, myocardial infarction, ischemic stroke, and urgent revascularization (meta-analysis) ([2]; four major randomized controlled trials) | hAEC proliferation (HAECs) | solubility in water [3] |
| --- | --- | --- | --- | --- | --- | --- | --- |
| COc1cc2c(c(OC)c1OC)-c1ccc(OC)c(=O)cc1[C@@H](NC(C)=O)CC2 [colchicine, N[5′,6,7,9-tetrahydro-1,2,3,10-tetratmethoxy 9-oxobenzo[a]heptalen-7-yl], (S)-acetamide] | above 2 nM | above 20 nM | lower among those who received 0.5 mg of colchicine once daily than among those who received placebo | lower among those who received 0.5 mg of colchicine once daily than those who did not receive colchicine | significant reduction |  |  |
| CO[C@H]1C[C@@H]2CC[C@@H](C)[C@@](O)(O2)C(=O)C(=O)N2CCCC[C@H]2C(=O)O[C@H]([C@H](C)C[C@@H]2CC[C@@H](O)[C@H](OC)C2)CC(=O)[C@H](C)/C=C(\C)[C@@H](O)[C@@H](OC)C(=O)[C@H](C)C[C@H](C)/C=C/C=C/C=C/1C [Sirolimus] |  |  |  |  |  | reduced the proliferation of hAECs dose-dependently | virtually insoluble in water |
